According to patent publication US6602499B1, “Combination viral-based and gene-based therapy of tumors” (priority 1998, dated 2003):

How the values were obtained:
[1] = system: rRp450- and hrR3-infected 9L cells; experiment: Viral protein synthesis (35S-methionine pulse, autoradiography) in infected 9L cells; format: cell-based, rat; conditions: 9L cells grown with 250 uM CPA or 100 ng/ml ganciclovir for 30 hours, then infected with rRp450 or hrR3 at MOI=3
Description: FIG. 4 is an autoradiograph depicting the effect of CPA on rRp450 protein synthesis in infected 9L tumor cells. 9L tumor cells were grown in the presence of CPA (lanes 3 and 6), 100 ng/ml ganciclovir (lanes 2 and 5), or vehicle (lanes 1 and 4). Cells from each group were then infected with rRp450 (lanes 4-6) or hrR3 (lanes 1-3). After pulsing with ^35S-methionine, cell lysates were separated by electrophoresis. The designations, 6,5,8, gB, and pgB indicate the viral ICP6-lacZ fusion, ICP5, ICP8, and glycoprotein B, respectively. The size of molecular weight markers is indicated on the left side of the blot.
Measurement of Viral Protein Synthesis: 9L tumor cells were grown in the presence of 250 uM CPA, 100 ng/ml ganciclovir, or vehicle for 30 hours. Cells from each group were then infected with rRp450 or hrR3 at an MOI=3. Control plates were infected with a mock viral preparation. Eighteen hours later, medium was removed and fresh medium containing 20 uCi of ^35S-methionine was added. Cells were then scraped and harvested two hours later. Cell pellets were resuspended in sodium phosphate, pH=7.3. in 0.9% sodium chloride in the presence of protease inhibitors and then sheared by passage through a 28 and a ½ gauge needle. Protein concentrations were calculated by using a commercially available kit (BioRad). […]

9L cells = experiment: Viral yields from infected 9L cells treated with cyclophosphamide, plaque assay on Vero cells; format: cell-based, rat; conditions: 9L cells infected with rRp450 in presence or absence of cyclophosphamide, three days
Description: Three day later, cells and supernatants were harvested and virus was harvested by freeze-thawing three times. Plaque-assays on Vero cells were performed to measure viral yields. Assay was performed in triplicate plates.
Cell culture studies: Cells were usually plated the day before viral infection. The following day, 3 random dishes were trypsinized and cell numbers were enumerated using a Coulter counter. Based on the mean cell number, the viral mutant was added to achieve the desired multiplicity of infection (MOI). Experiments were performed in triplicate dishes.
CPA: CPA was added at the start of the incubation period at a concentration of 250 Um.

Vero cells = format: cell-based; conditions: CPA at concentrations up to 200 uM
human U87 tumors = experiment: Subcutaneous human U87 glioma tumors in athymic mice, intratumoral injection; format: in vivo; conditions: rRp450 2.5×10^8 pfus plus vehicle, or 1 mg CPA alone
Source text: FIG. 6B is a graph depicting the in vivo augmentation of rRp450's oncolytic effect by CPA on U87 tumors. Human U87 tumors were inoculated with CPA (closed circles), rRp450 plus vehicle (open circles), or rRp450 plus CPA (dark squares). The black vertical arrows indicate the times of injection (days 1, 2, 4, and 6). Values represent the average tumor volume from 5 mice per group. Error bars represent the standard error of the mean. For this experiment, differences were statistically significant at the 22, 26 and 29 day time point (P<0.05, one way analysis of variance).
In a similar experiment, visible subcutaneous nodules (the range of volumes was 10-135 mm^3 and the average volume was 74 mm^3) were established by the injection of 10^6 human U87 glioma cells into the subcutaneous flank of athymic mice (NCY/sed, nu/nu; MGH breeding colony). Thirty days later the tumors were treated with intratumoral injections, using a Hamilton syringe, of 1 mg CPA in 125 ul of medium, rRp450 (2.5×10^8 pfus) plus vehicle in 125 ul of medium, or rRp450 (2.5×10^8 pfus) plus 1 mg CPA in 125 ul of medium. Tumor inoculations were repeated on day 2, day 4 and day 6. Five mice were used per treatment group. […]

SMILES | Effect of drug on viral protein synthesis [1] | Effect of CPA on replication of rRp450 (9L cells) | Inhibition of plaque production (Vero cells) | Growth of U87 tumors, agent alone (human U87 tumors)
O=P1(N(CCCl)CCCl)NCCCO1 (stereo not drawn) [CPA, cyclophosphamide] | did not appear to significantly inhibit viral protein synthesis | did not significantly inhibit replication of rRp450 | did not inhibit plaque production | relatively rapid
Nc1nc(O)c2ncn(COC(CO)CO)c2n1 [ganciclovir] | inhibited the synthesis of viral proteins |  | did | 
